# Legend:
# [1] = system: peptide-reactive IgG; assay: ELISA of anti-C-35 and anti-NS5A-2132 antibody in cohort study sera of 1995 and 2002; format: binding, human; settings: serum dilution 100:1
# Protocol: Sera were obtained from 33 patients with a disease associated with HCV in the cohort study conducted between 1995 and 2002. The sera obtained from patients with chronic hepatitis (CH, n=68), liver cirrhosis (LC, n=43) and hepatic cell carcinoma (HCC, n=52) were also used in the analysis. These patients were diagnosed at the time of the first serum sampling by biochemical and histological findings, echography and computed tomography. An anti-HCV antibody was assayed using a chemiluminescence enzyme immunoassay (CLEIA) kit (Lumipulse II HCV, Fujirebio Inc., Tokyo, Japan) or the second generation or the third generation enzyme immunoassay test (SRL, Tokyo, Japan). HCV-RNA in the sera was detected using RT-PCR (SRL, Tokyo, Japan). The HCV genotype was determined by directly sequencing HCV in the sera of the patients by RT-PCR (SRL, Tokyo, Japan). The sera were also obtained from subjects who were not infected with HCV, which include 24 subjects with an autoimmune disease (6 patients with systematic lupus erythematosus, one with Behcet's disease and 17 with atopic dermatitis), 17 cases of hepatitis B virus (HBV) infection (positive for HBV surface antigen), 3 patients having human immunodeficiency virus (HIV) and 10 cases with human T cell leukemia virus type I (HTLV-1) infection.
# The level of peptide-specific IgG was measured by an enzyme-linked immunosorbent assay (ELISA). […]
# [2] = system: peptide-specific IgG in the serum; assay: ELISA of peptide-specific IgG in sera of HCV patients and healthy donors (Example 1); format: binding, human
# Outline: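 Sera from 12 HCV patients and 10 healthy donors, diluted 1:100–1:400, tested by ELISA on plates coated with DSS-crosslinked HLA-A2/A24-motif HCV 1b peptides (20 µg/well); HIV peptide as negative control. Incubated 2 h at 37 °C; detection via rabbit anti-human IgG, HRP-polymer anti-rabbit, TMB. Cutoff = healthy-donor mean OD ± 3 SD.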
sequence,measurement,setting,value
YLLPRRGPRL [No. 40],level of the anti-peptide antibody in 1995 compared with 2002,[1]; 33 cohort patients,almost equal
same,level of the anti-peptide antibody by group in 2002,"[1]; CH, LC, HCC, recovered individuals, ASC","high in any of CH, LC, and HCC patients, and it became very low or undetectable in the recovered individuals"
same,IgG antibody reactive to the peptide in the serum of single patients,"[2]; representative patients, FIGS. 1 and 2",detected
same,Healthy donors (n = 10) Positive %,"[2]; share of 10 healthy donors with serum IgG reactive to the peptide, ELISA, cut-off value 1.83",0%
same,HCV patients (n = 12) Positive %,"[2]; share of 12 HCV patients with serum IgG reactive to the peptide, ELISA, cut-off value 1.83",100%

# From patent publication US20080063643A1, “Peptide Derived From Hepatitis C Virus” (priority 2003, published 2008)
